The source of these data is ChEMBL document CHEMBL5390322, “Discovery of 5-Azaquinoxaline Derivatives as Potent and Orally Bioavailable Allosteric SHP2 Inhibitors” (ACS Med Chem Lett, 2023).

Structures are written as SMILES. Bounds are passed on as bounds.

System in the first data set: not listed separately
Nature of the data set: Metabolic stability in human liver microsome assessed as intrinsic clearance at […] preincubated for 5 mins followed by NADPH addition and measured after 20 mins by LC-MS analysis. It counts as ADME. As to conditions: liver microsomes, dose 2.5 µM, time 25 min, read-out: CLH. (In general: Microsomes from liver hold many membrane-bound enzymes, among them those of drug oxidation.)
Consider `Nc1nccc(Sc2ccc3nc(N4CCC5(CC4)Cc4cc(F)ccc4[C@H]5N)cnc3n2)c1Cl`, for which the CLint scaled at […] came out at 5 mL/min/kg.
The same measure, in the same setting: to `CC1(N)CCN(c2cnc3nc(-c4cccc5ccccc45)ccc3n2)CC1` belongs 3 mL/min/kg; to `COc1cnc2c(c1)[C@@H](N)C1(CCN(c3cnc4nc(Sc5ccnc(N)c5Cl)ccc4n3)CC1)C2`, 7 mL/min/kg.
The same measure, in the same setting: next, `CC1(N)CCN(c2cnc3nc(Sc4ccnc(N)c4Cl)ccc3n2)CC1`: 3 mL/min/kg; `Nc1nccc(Sc2ccc3nc(N4CCC5(CC4)Cc4ncc(F)cc4[C@H]5N)cnc3n2)c1Cl`: 13 mL/min/kg; `CC1(N)CCN(c2cnc3nc(Sc4cccc(C#N)c4Cl)ccc3n2)CC1`: 9 mL/min/kg.
Consider `Cc1ccc2c(c1)[C@@H](N)C1(CCN(c3cnc4nc(Sc5ccnc(N)c5Cl)ccc4n3)CC1)C2`, for which the CLint scaled at […] amounted to 6 mL/min/kg.
On to `Cc1ccc2c(n1)CC1(CCN(c3cnc4nc(Sc5ccnc(N)c5Cl)ccc4n3)CC1)[C@@H]2N`, for which the CLint scaled at […] is 14 mL/min/kg.
The same measure, in the same setting: next, `Nc1nccc(Sc2ccc3nc(N4C[C@H]5C[C@@H](C4)[C@H]5N)cnc3n2)c1Cl`: 4 mL/min/kg; `CC1(N)CCN(c2cnc3nc(-c4cccc(Cl)c4Cl)ccc3n2)CC1`: 3 mL/min/kg.

System in a further data set: not listed separately
Nature of the data set: Metabolic stability in human hepatocyte assessed as intrinsic clearance incubated for 1 to 2 hrs by LC-MS analysis. It is filed as ADME, cell-based. As to conditions: hepatocytes, time 1-2 hrs, read-out: CLH.
`Nc1nccc(Sc2ccc3nc(N4CCC5(CC4)Cc4cc(F)ccc4[C@H]5N)cnc3n2)c1Cl`: the CLint scaled at 10000 µM worked out at 12 mL/min/kg.
For the molecule `CC1(N)CCN(c2cnc3nc(-c4cccc5ccccc45)ccc3n2)CC1`, the CLint scaled at 10000 µM was 2 mL/min/kg.
Still for that read-out and setting: to `COc1cnc2c(c1)[C@@H](N)C1(CCN(c3cnc4nc(Sc5ccnc(N)c5Cl)ccc4n3)CC1)C2` belongs 12 mL/min/kg; to `CC1(N)CCN(c2cnc3nc(Sc4ccnc(N)c4Cl)ccc3n2)CC1`, 2 mL/min/kg.
On the same count and under the same terms, next, `Nc1nccc(Sc2ccc3nc(N4CCC5(CC4)Cc4ncc(F)cc4[C@H]5N)cnc3n2)c1Cl`: 12 mL/min/kg.
For the molecule `Nc1nccc(Sc2ccc3nc(N4CCC5(CC4)C[C@@H](O)C[C@H]5N)cnc3n2)c1Cl`, the CLint scaled at 10000 µM stood at 8 mL/min/kg.
With `CC1(N)CCN(c2cnc3nc(Sc4cccc(C#N)c4Cl)ccc3n2)CC1`, the CLint scaled at 10000 µM is 7 mL/min/kg.
For the molecule `Cc1ccc2c(c1)[C@@H](N)C1(CCN(c3cnc4nc(Sc5ccnc(N)c5Cl)ccc4n3)CC1)C2`, the CLint scaled at 10000 µM is 10 mL/min/kg.
Regarding `Cc1ccc2c(n1)CC1(CCN(c3cnc4nc(Sc5ccnc(N)c5Cl)ccc4n3)CC1)[C@@H]2N`, the CLint scaled at 10000 µM turned out to be 15 mL/min/kg.
`Nc1nccc(Sc2ccc3nc(N4C[C@H]5C[C@@H](C4)[C@H]5N)cnc3n2)c1Cl`: the CLint scaled at 10000 µM came to 5 mL/min/kg.
On the same count and under the same terms, to `CC1(N)CCN(c2cnc3nc(-c4cccc(Cl)c4Cl)ccc3n2)CC1` belongs 2 mL/min/kg.

System in the next data set: not listed separately
In words: Metabolic stability in mouse liver microsome assessed as intrinsic clearance at […] preincubated for 5 mins followed by NADPH addition and measured after 20 mins by LC-MS analysis. It counts as ADME. Particulars: liver microsomes, dose 2.5 µM, time 25 min, read-out: CLH.
For the molecule `Nc1nccc(Sc2ccc3nc(N4CCC5(CC4)Cc4cc(F)ccc4[C@H]5N)cnc3n2)c1Cl`, the CLint scaled at […] came to 17 mL/min/kg.
For the molecule `CC1(N)CCN(c2cnc3nc(-c4cccc5ccccc45)ccc3n2)CC1`, the CLint scaled at […] was 22 mL/min/kg.
Still for that read-out and setting: next, `COc1cnc2c(c1)[C@@H](N)C1(CCN(c3cnc4nc(Sc5ccnc(N)c5Cl)ccc4n3)CC1)C2`: 29 mL/min/kg.
Turning to `CC1(N)CCN(c2cnc3nc(Sc4ccnc(N)c4Cl)ccc3n2)CC1`, the CLint scaled at […] is 30 mL/min/kg.
With `Nc1nccc(Sc2ccc3nc(N4CCC5(CC4)Cc4ncc(F)cc4[C@H]5N)cnc3n2)c1Cl`, the CLint scaled at […] was 47 mL/min/kg.
Turning to `Nc1nccc(Sc2ccc3nc(N4CCC5(CC4)C[C@@H](O)C[C@H]5N)cnc3n2)c1Cl`, the CLint scaled at […] was 10 mL/min/kg.
The same measure, in the same setting: to `CC1(N)CCN(c2cnc3nc(Sc4cccc(C#N)c4Cl)ccc3n2)CC1` belongs 23 mL/min/kg; to `Cc1ccc2c(c1)[C@@H](N)C1(CCN(c3cnc4nc(Sc5ccnc(N)c5Cl)ccc4n3)CC1)C2`, 25 mL/min/kg; to `Cc1ccc2c(n1)CC1(CCN(c3cnc4nc(Sc5ccnc(N)c5Cl)ccc4n3)CC1)[C@@H]2N`, 41 mL/min/kg.
Same read-out and setting: next, `Nc1nccc(Sc2ccc3nc(N4C[C@H]5C[C@@H](C4)[C@H]5N)cnc3n2)c1Cl`: 28 mL/min/kg; `CC1(N)CCN(c2cnc3nc(-c4cccc(Cl)c4Cl)ccc3n2)CC1`: 25 mL/min/kg.

System in the next data set: not listed separately
In words: Permeability of compound from apical to basolateral side in LLC-PK1 cells incubated for 2 hrs by LC-MS/MS analysis. It counts as ADME, cell-based, Sus scrofa. As to conditions: pig, read-out: permeability.
In the case of `Nc1nccc(Sc2ccc3nc(N4CCC5(CC4)Cc4cc(F)ccc4[C@H]5N)cnc3n2)c1Cl`, the Papp A→B at 2 h worked out at 6 ×10⁻⁶ cm/s.
For the molecule `CC1(N)CCN(c2cnc3nc(Sc4cccn5nccc45)ccc3n2)CC1`, the Papp A→B at 2 h worked out at 14 ×10⁻⁶ cm/s.
The same measure, in the same setting: to `CC1(N)CCN(c2cnc3nc(-c4cccc5ccccc45)ccc3n2)CC1` belongs 13 ×10⁻⁶ cm/s; to `COc1cnc2c(c1)[C@@H](N)C1(CCN(c3cnc4nc(Sc5ccnc(N)c5Cl)ccc4n3)CC1)C2`, 6 ×10⁻⁶ cm/s.
On the same count and under the same terms, next, `CC1(N)CCN(c2cnc3nc(Sc4ccnc(N)c4Cl)ccc3n2)CC1`: 10 ×10⁻⁶ cm/s; `Nc1nccc(Sc2ccc3nc(N4CCC5(CC4)Cc4ncc(F)cc4[C@H]5N)cnc3n2)c1Cl`: 9 ×10⁻⁶ cm/s; `Nc1nccc(Sc2ccc3nc(N4CCC5(CC4)C[C@@H](O)C[C@H]5N)cnc3n2)c1Cl`: 1 ×10⁻⁶ cm/s.
On the same count and under the same terms, to `CC1(N)CCN(c2cnc3nc(Sc4cccc(C#N)c4Cl)ccc3n2)CC1` belongs 9 ×10⁻⁶ cm/s; to `Cc1ccc2c(n1)CC1(CCN(c3cnc4nc(Sc5ccnc(N)c5Cl)ccc4n3)CC1)[C@@H]2N`, 10 ×10⁻⁶ cm/s; to `Nc1nccc(Sc2ccc3nc(N4C[C@H]5C[C@@H](C4)[C@H]5N)cnc3n2)c1Cl`, 14 ×10⁻⁶ cm/s.

System in the next data set: not listed separately
Nature of the data set: Metabolic stability in mouse hepatocyte assessed as intrinsic clearance incubated for 1 to 2 hrs by LC-MS analysis. It counts as ADME, cell-based. As to conditions: hepatocytes, time 1-2 hrs, read-out: CLH.
Turning to `Nc1nccc(Sc2ccc3nc(N4CCC5(CC4)Cc4cc(F)ccc4[C@H]5N)cnc3n2)c1Cl`, the CLint scaled is 37 mL/min/kg.
Take `CC1(N)CCN(c2cnc3nc(-c4cccc5ccccc45)ccc3n2)CC1`: the CLint scaled turned out to be 8 mL/min/kg.
For `COc1cnc2c(c1)[C@@H](N)C1(CCN(c3cnc4nc(Sc5ccnc(N)c5Cl)ccc4n3)CC1)C2`, the CLint scaled is 30 mL/min/kg.
On the same count and under the same terms, to `CC1(N)CCN(c2cnc3nc(Sc4ccnc(N)c4Cl)ccc3n2)CC1` belongs 8 mL/min/kg; to `Nc1nccc(Sc2ccc3nc(N4CCC5(CC4)Cc4ncc(F)cc4[C@H]5N)cnc3n2)c1Cl`, 26 mL/min/kg.
With `Nc1nccc(Sc2ccc3nc(N4CCC5(CC4)C[C@@H](O)C[C@H]5N)cnc3n2)c1Cl`, the CLint scaled is 31 mL/min/kg.
Consider `CC1(N)CCN(c2cnc3nc(Sc4cccc(C#N)c4Cl)ccc3n2)CC1`, for which the CLint scaled is 12 mL/min/kg.
Still for that read-out and setting: to `Cc1ccc2c(c1)[C@@H](N)C1(CCN(c3cnc4nc(Sc5ccnc(N)c5Cl)ccc4n3)CC1)C2` belongs 33 mL/min/kg.
Regarding `Cc1ccc2c(n1)CC1(CCN(c3cnc4nc(Sc5ccnc(N)c5Cl)ccc4n3)CC1)[C@@H]2N`, the CLint scaled came out at 35 mL/min/kg.
Consider `Nc1nccc(Sc2ccc3nc(N4C[C@H]5C[C@@H](C4)[C@H]5N)cnc3n2)c1Cl`, for which the CLint scaled worked out at 23 mL/min/kg.
On the same count and under the same terms, next, `CC1(N)CCN(c2cnc3nc(-c4cccc(Cl)c4Cl)ccc3n2)CC1`: 8 mL/min/kg.

A further data set has as its target Mitogen-activated protein kinase; ERK1/ERK2 (Homo sapiens, UniProt P27361+P28482). In words: Inhibition of ERK1/2 phosphorylation at Thr202/Tyr204 residues in human KYSE520 cells incubated for 1 hrs by Western blot analysis. It counts as cell-based.
Details: not given
On to `Nc1nccc(Sc2ccc3nc(N4CCC5(CC4)Cc4cc(F)ccc4[C@H]5N)cnc3n2)c1Cl`, for which the IC50 (as a rule, the point on the concentration scale where inhibition reaches its midpoint) turned out to be 10 nM.
Still for that read-out and setting: to `CC1(N)CCN(c2cnc3nc(Sc4cccn5nccc45)ccc3n2)CC1` belongs 1388 nM.
The same measure, in the same setting: next, `CC1(N)CCN(c2cnc3nc(-c4cccc5ccccc45)ccc3n2)CC1`: 510 nM; `CC1(N)CCN(c2cnc3cc(-c4cccc(Cl)c4Cl)ccc3n2)CC1`: > 20000 nM.
The molecule `COc1cnc2c(c1)[C@@H](N)C1(CCN(c3cnc4nc(Sc5ccnc(N)c5Cl)ccc4n3)CC1)C2` showed an IC50 of 8 nM.
Molecule `CC1(N)CCN(c2cnc3nc(Sc4ccnc(N)c4Cl)ccc3n2)CC1` displayed an IC50 of 58 nM. This IC50 lies about 7.2-fold higher than the previous one.
On to `Nc1nccc(Sc2ccc3nc(N4CCC5(CC4)Cc4ncc(F)cc4[C@H]5N)cnc3n2)c1Cl`, for which the IC50 stood at 6 nM. This IC50 is about 9.7-fold lower than that of the molecule before.
On the same count and under the same terms, next, `Nc1nccc(Sc2ccc3nc(N4CCC5(CC4)C[C@@H](O)C[C@H]5N)cnc3n2)c1Cl`: 142 nM.
The same measure, in the same setting: to `CC1(N)CCN(c2cnc3nc(Sc4cccc(C#N)c4Cl)ccc3n2)CC1` belongs 991 nM; to `Cc1ccc2c(c1)[C@@H](N)C1(CCN(c3cnc4nc(Sc5ccnc(N)c5Cl)ccc4n3)CC1)C2`, 17 nM.
`CC1(N)CCN(c2cnc(-c3cccc(Cl)c3Cl)c(N)n2)CC1` had an IC50 of 254 nM.
Turning to `Cc1ccc2c(n1)CC1(CCN(c3cnc4nc(Sc5ccnc(N)c5Cl)ccc4n3)CC1)[C@@H]2N`, the IC50 is 17 nM.
On the same count and under the same terms, to `Nc1nccc(Sc2ccc3nc(N4C[C@H]5C[C@@H](C4)[C@H]5N)cnc3n2)c1Cl` belongs 227 nM; to `CC1(N)CCN(c2cnc3nc(-c4cccc(Cl)c4Cl)ccc3n2)CC1`, 471 nM.
